Values of other authors in US5739336A, “1,3,8-triaza- and 3,8-diaza-1-oxaspiro [4,5] decane derivatives” (Syntex (U.S.A.) Inc., priority 1996, dated 1998).

What was measured:
[1] = test system: rats
[2] = test system: migraine; conditions: human, in vivo
[3] = test system: rats; remark: listed apart in the source
[4] = test system: abstaining alcoholics
[5] = test system: rat; conditions: SI and elevated X-maze models
[6] = test system: human volunteers
[7] = test system: human volunteers; conditions: for slow wave sleep (SWS): human/healthy volunteers
[8] = test system: human volunteers; remark: listed apart in the source
[9] = test system: panic disorder patients or obsessive compulsive disorder patients
[10] = test system: rat models of addiction
[11] = test system: patients withdrawing from other drugs of abuse
[12] = test system: chronic alcoholics

| SMILES | alcohol preference [1] | clinical effectiveness as antimigraine agent [2] | penile erections [3] | craving for alcohol [4] | anxiogenic effects [5] | anxiety on administration [6] | rapid eye movement sleep ([7]; human volunteers) | sleep efficiency ([7]; human volunteers) | total sleep time ([7]; human volunteers) | slow wave sleep (SWS) [7] | migraine-like headaches [8] | levels of panic and/or anxiety [9] | cocaine and fentanyl preference [10] | usefulness in withdrawal from other drugs of abuse [11] | sleep onset latency ([7]; healthy volunteers) | subjective sleep quality ([7]; healthy volunteers) | alcohol intake [12] |
| --- | --- | --- | --- | --- | --- | --- | --- | --- | --- | --- | --- | --- | --- | --- | --- | --- | --- |
| O=C(c1ccc(F)cc1)C1CCN(CCn2c(=O)[nH]c3ccccc3c2=O)CC1 [ketanserin] | has no affect on preference for alcohol | is not | – | – | – | – | – | – | – | – | – | – | – | – | – | – | – |
| Clc1cccc(N2CCNCC2)c1 [mCPP, 1-(3-chlorophenyl)piperazine] | – | – | produces penile erections in rats | induces a craving for alcohol | produces anxiogenic effects | causes anxiety | reduces total sleep time, sleep efficiency, slow wave sleep (SWS) and rapid eye movement sleep | reduces total sleep time, sleep efficiency | reduces total sleep time | reduces total sleep time, sleep efficiency, slow wave sleep (SWS) | causes migraine-like headaches | increases levels of panic and/or anxiety | – | – | – | – | – |
| Cc1nc2sccn2c(=O)c1CCN1CCC(=C(c2ccc(F)cc2)c2ccc(F)cc2)CC1 [ritanserin] | reduces alcohol preference | – | – | – | – | – | – | – | – | increases SWS | – | – | reduces both cocaine and fentanyl preference | is useful in patients withdrawing from other drugs of abuse | reduces sleep onset latency | improves subjective sleep quality | decreases alcohol intake |
